For assay [1], the target named is human catalytic domain HDAC4 protein (amino acids 648-1032) (Homo sapiens (Human), UniProt P56524). Description: Inhibition of HDAC4 catalytic domain enzymatic activity, fluorogenic substrate Boc-Lys(Tfa)-AMC. Particulars: HDAC4 catalytic domain enzyme, read-out: Biochemical HDAC4 IC50.
The subject of assay [2] is cellular histone deacetylase enzymatic activity in Jurkat E6-1 cells. Kind of assay: Inhibition of cellular HDAC activity in Jurkat E6-1 cells, fluorogenic substrate Boc-Lys(Tfa)-AMC. The class given is cell-based. The conditions noted are these: Homo sapiens, read-out: Cell IC50. The method in brief:
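Jurkat E6.1 cells (75,000/well) were pre-treated with compound for 2 h at 37 °C, then given Boc-Lys(Tfa)-AMC (5× stock 500 μM) for 3 h. Cells were lysed with trypsin-containing buffer overnight, and released AMC fluorescence was read at Ex 355/Em 460 nm over a 16-point dilution series.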

Where only a bound is given, the exact number is not on record here.

Sequence of human catalytic domain HDAC4 protein (amino acids 648-1032) (P56524 648-1032): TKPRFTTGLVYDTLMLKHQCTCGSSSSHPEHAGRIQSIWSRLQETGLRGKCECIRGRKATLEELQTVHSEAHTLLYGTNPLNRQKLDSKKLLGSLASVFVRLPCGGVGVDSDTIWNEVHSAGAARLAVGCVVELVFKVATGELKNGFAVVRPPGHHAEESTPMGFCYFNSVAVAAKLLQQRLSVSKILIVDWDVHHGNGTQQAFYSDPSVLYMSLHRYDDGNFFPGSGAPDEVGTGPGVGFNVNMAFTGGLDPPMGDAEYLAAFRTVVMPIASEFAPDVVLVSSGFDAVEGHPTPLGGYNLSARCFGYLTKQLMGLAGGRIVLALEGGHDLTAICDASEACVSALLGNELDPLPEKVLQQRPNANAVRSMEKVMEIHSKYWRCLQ

The term IC50 denotes the point on the concentration scale where inhibition reaches its midpoint. For the compound `O=C(NO)C1(c2ccccc2F)CCCC1` [Example 19, 1-(2-fluorophenyl)-N-hydroxycyclopentanecarboxamide], the IC50 in assay [1] is 4.6 µM; in assay [2], 44.7 µM.

Turning to `O=C(NO)C1(c2ccc(Cl)cc2)CCCC1` [Example 20, 1-(4-chlorophenyl)-N-hydroxycyclopentanecarboxamide], the IC50 in assay [1] is 24 µM; in assay [2], over 50 µM.

Consider `O=C(NO)C1(c2ccccc2)CCCC1` [Example 21, N-Hydroxy-1-phenylcyclopentanecarboxamide], for which the IC50 in assay [1] is 11.4 µM; in assay [2], over 50 µM.

On to `O=C(NO)C1(c2c(F)cccc2Cl)CCCC1` [Example 22, 1-(2-Chloro-6-fluorophenyl)-N-hydroxycyclopentanecarboxamide], for which the IC50 in assay [1] came to 2.5 µM; in assay [2], 15.6 µM.

For the compound `COc1ccccc1C1(C(=O)NO)CCCC1` [Example 23, N-Hydroxy-1-(2-methoxyphenyl)cyclopentanecarboxamide], the IC50 in assay [1] and in assay [2] was over 50 µM each time.

For `Cc1ccccc1C1(C(=O)NO)CCCC1` [Example 24, N-Hydroxy-1-o-tolylcyclopentanecarboxamide], the figures for the IC50 in assay [1] and in assay [2] were 0.73 µM and 8.12 µM, respectively.

For `Cc1cccc(C2(C(=O)NO)CCCC2)c1` [Example 25, N-Hydroxy-1-m-tolylcyclopentanecarboxamide], the IC50 amounted to 8.2 µM in assay [1] and 43.7 µM in assay [2].

As for `O=C(NO)C1(c2ccccc2Cl)CCCC1` [Example 26, 1-(2-Chlorophenyl)-N-hydroxycyclopentanecarboxamide], the IC50 in assay [1] came out at 1.9 µM; in assay [2] it was 15.1 µM.

Regarding `N#Cc1ccccc1C1(C(=O)NO)CCCC1` [Example 27, 1-(2-Cyanophenyl)-N-hydroxycyclopentanecarboxamide], the IC50 in assay [1] and in assay [2] was over 50 µM in each case.

Regarding `N#Cc1cccc(C2(C(=O)NO)CCCC2)c1` [Example 28, 1-(3-Cyanophenyl)-N-hydroxycyclopentanecarboxamide], the IC50 in assay [1] and in assay [2] was over 50 µM in each case.

Turning to `Cc1c(C2(C(=O)NO)CCCC2)ccc(F)c1F` [Example 29, 1-(3,4-Difluoro-2-methylphenyl)-N-hydroxycyclopentanecarboxamide], the IC50 was 0.15 µM in assay [1] and 1.41 µM in assay [2].

Take `Cc1c(F)cc(F)cc1C1(C(=O)NO)CCCC1` [Example 30, 1-(3,5-Difluoro-2-methylphenyl)-N-hydroxycyclopentanecarboxamide]: the values for the IC50 in assay [1] and in assay [2] were 0.33 µM and 2.63 µM, respectively.

Turning to `Cc1cccc(Cl)c1C1(C(=O)NO)CCCC1` [Example 31, 1-(2-Chloro-6-methylphenyl)-N-hydroxycyclopentanecarboxamide], the results for the IC50 in assay [1] and in assay [2] were 0.91 µM and 8.1 µM, respectively.

As for `CCc1ccccc1C1(C(=O)NO)CCCC1` [Example 32, 1-(2-Ethylphenyl)-N-hydroxycyclopentanecarboxamide], the figures for the IC50 in assay [1] and in assay [2] were 1.1 µM and 6.5 µM, respectively.

`COc1cccc(C2(C(=O)NO)CCCC2)c1C(F)(F)F` [Example 33, N-Hydroxy-1-(3-methoxy-2-(trifluoromethyl)phenyl)cyclopentanecarboxamide]: the IC50 in assay [1] and in assay [2] was over 50 µM in each case.

As for `O=C(NO)C1(c2ccccc2C(F)(F)F)CCCC1` [Example 34, N-Hydroxy-1-(2-(trifluoromethyl)phenyl)cyclopentanecarboxamide], the IC50 in assay [1] was determined as 11 µM; in assay [2] it was 46 µM.

Regarding `Cc1cc(F)ccc1C1(C(=O)NO)CCCC1` [Example 35, 1-(4-Fluoro-2-methylphenyl)-N-hydroxycyclopentanecarboxamide], the IC50 turned out to be 0.57 µM in assay [1] and 5.6 µM in assay [2].

On to `Cc1ccc(F)cc1C1(C(=O)NO)CCCC1` [Example 36, 1-(5-Fluoro-2-methylphenyl)-N-hydroxycyclopentanecarboxamide], for which the IC50 in assay [1] was 0.83 µM; in assay [2] it was 7.5 µM.

For the compound `Cc1cccc(F)c1C1(C(=O)NO)CCCC1` [Example 37, 1-(2-Fluoro-6-methylphenyl)-N-hydroxycyclopentanecarboxamide], the IC50 was found to be 1.5 µM in assay [1] and 12 µM in assay [2].

As to `O=C(NO)C1(c2cccc3ccsc23)CCCC1` [Example 38, 1-(Benzo[b]thiophen-7-yl)-N-hydroxycyclopentanecarboxamide], the IC50 turned out to be 0.61 µM in assay [1] and 4.6 µM in assay [2].

For the compound `O=C(NO)[C@@]1(c2ccccc2)CC[C@@H](c2cncc(F)c2)C1` [Example 41, (1S,3R)-3-(5-fluoropyridin-3-yl)-N-hydroxy-1-phenylcyclopentanecarboxamide], the IC50 was determined as 1.9 µM in assay [1] and 13 µM in assay [2].

Regarding `O=C(NO)[C@@]1(c2ccccc2)CC[C@H](c2cncc(F)c2)C1` [Example 42, (1S,3S)-3-(5-fluoropyridin-3-yl)-N-hydroxy-1-phenylcyclopentanecarboxamide], the results for the IC50 in assay [1] and in assay [2] were 1.4 µM and 7.2 µM, respectively.

Turning to `Cc1c(F)cccc1[C@]1(C(=O)NO)CC[C@@H](c2cc(F)cnc2C2CC2)C1` [Example 43, (1S,3R)-3-(2-cyclopropyl-5-fluoropyridin-3-yl)-1-(3-fluoro-2-methylphenyl)-N-hydroxycyclopentanecarboxamide], the IC50 in assay [1] stood at 0.24 µM; in assay [2] it was 0.61 µM.

As for `Cc1c(F)cccc1[C@]1(C(=O)NO)CC[C@@H](c2cc3c(cnn3C)cc2F)C1` [Example 81, (1S,3R)-3-(5-Fluoro-1-methyl-1H-indazol-6-yl)-1-(3-fluoro-2-methylphenyl)-N-hydroxycyclopentanecarboxamide], the IC50 stood at 0.15 µM in assay [1] and 0.58 µM in assay [2].

Consider `Cc1c(F)cccc1[C@]1(C(=O)NO)CC[C@@H](Oc2ccc3cnn(C)c3c2)C1` [Example 91, (1S,3R)-1-(3-Fluoro-2-methylphenyl)-N-hydroxy-3-((1-methyl-1H-indazol-6-yl)oxy)cyclopentanecarboxamide], for which the results for the half-inhibitory concentration (IC50) in assay [1] and in assay [2] were 0.29 µM and 1.6 µM, respectively.

For `Cc1c(F)cccc1[C@]1(C(=O)NO)CC[C@H](Oc2ccc3cnn(C)c3c2)C1` [Example 92, (1S,3S)-1-(3-Fluoro-2-methylphenyl)-N-hydroxy-3-((1-methyl-1H-indazol-6-yl)oxy)cyclopentanecarboxamide], the IC50 in assay [1] is 0.14 µM; in assay [2], 0.47 µM.

Consider `Cc1c(F)cccc1[C@]1(C(=O)NO)CC[C@@H](Oc2cncc(F)c2)C1` [Example 93, (1S,3R)-1-(3-fluoro-2-methylphenyl)-3-((5-fluoropyridin-3-yl)oxy)-N-hydroxycyclopentanecarboxamide], for which the IC50 in assay [1] was 0.2 µM; in assay [2], 1.9 µM.

Regarding `Cc1c(F)cccc1[C@]1(C(=O)NO)CC[C@H](Oc2cncc(F)c2)C1` [Example 94, (1S,3S)-1-(3-fluoro-2-methylphenyl)-3-((5-fluoropyridin-3-yl)oxy)-N-hydroxycyclopentanecarboxamide], the IC50 in assay [1] was found to be 0.16 µM; in assay [2] it was 0.83 µM.

Regarding `Cc1c(F)cccc1[C@]1(C(=O)NO)CC[C@@H](Oc2ccccc2)C1` [Example 95, (1S,3R)-1-(3-fluoro-2-methylphenyl)-N-hydroxy-3-phenoxycyclopentanecarboxamide], the IC50 in assay [1] is 0.16 µM; in assay [2] it was 1.5 µM.

Regarding `Cc1c(F)cccc1[C@]1(C(=O)NO)CC[C@H](Oc2ccccc2)C1` [Example 96, (1S,3S)-1-(3-fluoro-2-methylphenyl)-N-hydroxy-3-phenoxycyclopentanecarboxamide], the IC50 in assay [1] worked out at 0.13 µM; in assay [2] it was 0.26 µM.

As for `Cc1c(F)cccc1[C@]1(C(=O)NO)CC[C@H](OCc2ccc(F)cc2)C1` [Example 97, (1S,3S)-1-(3-fluoro-2-methylphenyl)-3-((4-fluorobenzyl)oxy)-N-hydroxycyclopentanecarboxamide], the IC50 in assay [1] worked out at 0.24 µM; in assay [2] it was 0.66 µM.

Consider `O=C(NO)C1(c2ccccc2)CCCCC1` [Example 98, 1-phenyl-N-hydroxycyclohexylcarboxamide], for which the IC50 in assay [1] and in assay [2] was over 50 µM throughout.

As to `Cc1c(F)cccc1[C@]1(C(=O)NO)CC[C@H](c2cncc(F)c2)CC1` [Example 99, (1r,4r)-1-(3-fluoro-2-methylphenyl)-4-(5-fluoropyridin-3-yl)-N-hydroxycyclohexanecarboxamide], the IC50 turned out to be 4.1 µM in assay [1] and 38 µM in assay [2].

In the case of `Cc1c(F)cccc1[C@]1(C(=O)NO)CC[C@@H](c2cncc(F)c2)CC1` [Example 100, (1s,4s)-1-(3-Fluoro-2-methylphenyl)-4-(5-fluoropyridin-3-yl)-N-hydroxycyclohexanecarboxamide], the IC50 in assay [1] is 0.66 µM; in assay [2], 0.37 µM.

For `Cc1c(F)cccc1[C@]1(C(=O)NO)CC[C@H](Oc2ccccc2)CC1` [Example 101, (1r,4r)-1-(3-fluoro-2-methylphenyl)-N-hydroxy-4-phenoxycyclohexanecarboxamide], the IC50 amounted to 0.68 µM in assay [1] and 0.54 µM in assay [2].

In the case of `Cc1c(F)cccc1[C@]1(C(=O)NO)CC[C@@H](OCc2ccc(F)cc2)CC1` [Example 102, (1s,4s)-1-(3-fluoro-2-methylphenyl)-4-((4-fluorobenzyl)oxy)-N-hydroxycyclohexanecarboxamide], the figures for the IC50 in assay [1] and in assay [2] were 14 µM and 49 µM, respectively.

`Cc1c(F)cccc1[C@]1(C(=O)NO)CC[C@@H](c2ccc3cnn(C)c3c2)CC1` [Example 103, (1s,4s)-1-(3-fluoro-2-methylphenyl)-N-hydroxy-4-(1-methyl-1H-indazol-6-yl)cyclohexanecarboxamide]: the IC50 in assay [1] was determined as 4.2 µM; in assay [2] it was 26 µM.

These data come from patent US9783488B2 (CHDI Foundation, Inc., priority 2013, dated 2017).
